Data reported in patent US9174968B2, “Pyrimidinone compounds for use in the treatment of diseases or conditions mediated by LP-PLA2” (GLAXO GROUP LIMITED, priority 2010, dated 2015).
Counter-ions that a name gives are not always drawn.

target: T1, Lp-PLA2 from plasma (pooled human plasma) (Homo sapiens, UniProt Q13093); test: Lp-PLA2 human plasma assay (Thio-PAF assay); type: biochemical; settings: read-out: pIC50 in the thio-PAF assay (converted)
T1 construct: from tissue; host or cells: pooled human plasma
T1 sequence (Q13093 22-441): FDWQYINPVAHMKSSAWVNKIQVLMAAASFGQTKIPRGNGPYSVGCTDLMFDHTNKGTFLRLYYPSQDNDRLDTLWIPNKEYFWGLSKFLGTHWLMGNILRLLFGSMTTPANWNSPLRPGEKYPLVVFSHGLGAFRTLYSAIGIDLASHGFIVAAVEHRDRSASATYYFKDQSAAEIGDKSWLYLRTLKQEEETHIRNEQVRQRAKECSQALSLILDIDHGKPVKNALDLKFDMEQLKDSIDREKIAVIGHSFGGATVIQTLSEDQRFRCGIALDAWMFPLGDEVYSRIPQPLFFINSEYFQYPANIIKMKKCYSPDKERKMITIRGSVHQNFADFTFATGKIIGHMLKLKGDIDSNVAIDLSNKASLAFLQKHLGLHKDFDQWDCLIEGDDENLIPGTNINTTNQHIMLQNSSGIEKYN
Excerpt: (3) Lipoprotein-Associated Phospholipase A2 (Lp-PLA2) Human Plasma Assay (Also Referred to as “Thio-PAF Assay”)
The human plasma assay utilizes a thioester analog of PAF (phosphatidylcholine), where hydrolysis yields to the formation of a phospholipid containing a free thiol group. The amount of thiol is quantitated continuously by reacting with CPM (7-diethylamino-3-(4′-maleimidylphenyl)-4-methylcoumarin), a maleimide which increases in fluorescence after Michael addition of thiols. This assay may detect the activity of Lp-PLA2 from plasma, as determined by specific inhibition by Lp-PLA2 inhibitors.
The thio-PAF assay was run as a quenched 15 μL assay. Compounds source plate was prepared by making 1:3 (by volume) serial dilution of the compounds into pure DMSO on 384-well microplate. 0.01 μL of compounds on compound source plate were transferred to 384 well Greiner 784076 (black) low-volume plates by ECHO liquid dispenser. 8 μL pooled human plasma, which was previously aliquoted and frozen, was added. Plates were centrifuged for 10 sec at 500 rpm. After 30 minutes preincubation, 2 μL of substrate (2.5 mM thio-PAF, 3.2 mM NEM (N-ethylmaleimide) [made fresh daily in DMSO], and 32 μM CPM [from a DMSO stock] in assay buffer of 50 mM HEPES, pH7.4, 150 mM NaCl, 1 mM CHAPS was added to 384 well Greiner 784076 (black) low-volume plates by BRAVO liquid handling station. Plates were centrifuged for 10 sec at 500 rpm. Plate was covered to protect from light and incubated for 2 min at room temperature. Reaction was quenched with 5 μL of 5% aqueous trifluoroacetic acid (TFA). Plates were covered to protect from light and incubated for 40 min at room temperature. Plates were read at ex: 380/em: 485 using-Envision microplate reader. PIC50 data, curve and QC analysis was conducted by using XLFit module in Excel.
All exemplified compounds of the present invention were tested in thio-PAF assay or similar assay as described above.

IC50, > 10 µM:
CCc1c[nH]c(OCCc2ccc(Oc3ccc(Cl)c(C)c3)cc2)nc1=O [E183, 2-[(2-{4-[(4-chloro-3-methylphenyl)oxy]phenyl}ethyl)oxy]-5-ethyl-4(1H)-pyrimidinone]
Cn1cc(Cc2c[nH]c(SCc3ccc(Oc4ccc(Cl)c(C(F)(F)F)c4)c(C#N)c3)nc2=O)c2ccccc21 [E81, 2-(4-chloro-3-(trifluoromethyl)phenoxy)-5-(((5-((1-methyl-1H-indol-3-yl)methyl)-4-oxo-1,4-dihydropyrimidin-2-yl)thio)methyl)benzonitrile]
CCc1cn(C)c(OCCc2cc(F)c(Oc3cnc(C(F)(F)F)nc3)c(F)c2)nc1=O [E171, 2-(3,5-difluoro-4-((2-(trifluoromethyl)pyrimidin-5-yl)oxy)phenethoxy)-5-ethyl-1-methylpyrimidin-4(1H)-one]
CCc1c[nH]c(OCCc2ccc(Oc3cc(Cl)cc(C(F)(F)F)c3)cc2)nc1=O [E163, 2-{[2-(4-{[3-chloro-5-(trifluoromethyl)phenyl]oxy}phenyl)ethyl]oxy}-5-ethyl-4(1H)-pyrimidinone]
COc1ncc(Cc2c[nH]c(SCc3ccc(Oc4ccc(F)cc4)cc3)nc2=O)cn1 [E52, 2-((4-(4-fluorophenoxy)benzyl)thio)-5-((2-methoxypyrimidin-5-yl)methyl)pyrimidin-4(1H)-one]
Cc1cccc(Oc2ccc(CCOc3nc(=O)c(Cc4cnn(C)c4)c[nH]3)cc2)n1 [E158, 5-[(1-methyl-1H-pyrazol-4-yl)methyl]-2-[(2-{4-[(6-methyl-2-pyridinyl)oxy]phenyl}ethyl)oxy]-4(1H)-pyrimidinone]
CCc1c[nH]c(OCCc2cc(F)c(Oc3ccc(Cl)c(C(F)(F)F)c3)c(F)c2)nc1=O [E125, 2-{[2-(4-{[4-chloro-3-(trifluoromethyl)phenyl]oxy}-3,5-difluorophenyl)ethyl]oxy}-5-ethyl-4(1H)-pyrimidinone]
CCc1c[nH]c(OCCc2ccc(Oc3ccc(Cl)c(C(F)(F)F)c3)c(F)c2)nc1=O [E173, 2-{[2-(4-{[4-chloro-3-(trifluoromethyl)phenyl]oxy}-3-fluorophenyl)ethyl]oxy}-5-ethyl-4(1H)-pyrimidinone]
COc1ncc(Cc2c[nH]c(SCc3ccc(Oc4ccc(F)c(C(F)(F)F)c4)c(C#N)c3)nc2=O)cn1 [E89, 2-{[4-fluoro-3-(trifluoromethyl)phenyl]oxy}-5-{[(5-{[2-(methyloxy)-5-pyrimidinyl]methyl}-4-oxo-1,4-dihydro-2-pyrimidinyl)thio]methyl}benzonitrile]
Cn1cc(Cc2c[nH]c(CCc3ccc(Oc4cccc(C(F)(F)F)c4)cc3)nc2=O)cn1 [E50, 5-((1-methyl-1H-pyrazol-4-yl)methyl)-2-(4-(3-(trifluoromethyl)phenoxy)phenethyl)pyrimidin-4(1H)-one]
O=C(O)Cc1c[nH]c(OCCc2ccc(Oc3ccc(Cl)c(C(F)(F)F)c3)cc2)nc1=O [E131, (2-{[2-(4-{[4-chloro-3-(trifluoromethyl)phenyl]oxy}phenyl)ethyl]oxy}-4-oxo-1,4-dihydro-5-pyrimidinyl)acetic acid]
O=c1nc(OCCc2ccc(Oc3ccc(Cl)c(C(F)(F)F)c3)cc2)[nH]cc1Cc1c(O)cc(F)cc1F [E19, 2-{[2-(4-{[4-Chloro-3-(trifluoromethyl)phenyl]oxy}phenyl)ethyl]oxy}-5-[(2,4-difluoro-6-hydroxyphenyl)methyl]-4(1H)-pyrimidinone]
CCc1c[nH]c(OCCc2cc(F)c(Oc3cnc(C(F)(F)F)nc3)c(F)c2)nc1=O [E170, 2-(3,5-difluoro-4-((2-(trifluoromethyl)pyrimidin-5-yl)oxy)phenethoxy)-5-ethylpyrimidin-4(1H)-one]
O=c1nc(CCc2ccc(Oc3ccc(F)cc3)cc2)[nH]cc1Cc1cncnc1 [E39, 2-(4-(4-fluorophenoxy)phenethyl)-5-(pyrimidin-5-ylmethyl)pyrimidin-4(1H)-one]
N#Cc1ccc(Cc2c[nH]c(SCCc3ccc(Oc4ccc(Cl)c(C(F)(F)F)c4)cc3)nc2=O)cc1 [E114, 4-[(2-{[2-(4-{[4-chloro-3-(trifluoromethyl)phenyl]oxy}phenyl)ethyl]thio}-4-oxo-1,4-dihydro-5-pyrimidinyl)methyl]benzonitrile]
CCc1c[nH]c(OCCc2ccc(Oc3ccc(C(F)(F)F)nc3)cc2)nc1=O [E140, 5-ethyl-2-{[2-(4-{[6-(trifluoromethyl)-3-pyridinyl]oxy}phenyl)ethyl]oxy}-4(1H)-pyrimidinone]
CCc1c[nH]c(OCCc2ccc(Oc3cccc(C)n3)cc2)nc1=O [E160, 5-ethyl-2-[(2-{4-[(6-methyl-2-pyridinyl)oxy]phenyl}ethyl)oxy]-4(1H)-pyrimidinone]
CCc1c[nH]c(SCc2ccc(Oc3ccc(Cl)c(C(F)(F)F)c3)cc2)nc1=O [E63, 2-{[(4-{[4-chloro-3-(trifluoromethyl)phenyl]oxy}phenyl)methyl]thio}-5-ethyl-4(1H)-pyrimidinone]
COc1ncc(Cc2c[nH]c(OCCc3ccc(Oc4ncc(Cl)cn4)cc3)nc2=O)cn1 [E145, 2-(4-((5-chloropyrimidin-2-yl)oxy)phenethoxy)-5-((2-methoxypyrimidin-5-yl)methyl)pyrimidin-4(1H)-one, Trifluoroacetic acid salt]
CCc1cn(C)c(OCCc2ccc(Oc3ccc(Cl)c(C)c3)cc2)nc1=O [E184, 2-[(2-{4-[(4-chloro-3-methylphenyl)oxy]phenyl}ethyl)oxy]-5-ethyl-1-methyl-4(1H)-pyrimidinone]
CN(CCc1ccc(Oc2ccc(F)cc2)cc1)c1nc(=O)c(Cc2cncnc2)c[nH]1 [E192, 2-{2-[4-(4-fluoro-phenoxy)phenyl]-ethyl-methyl-amino}-5-pyrimidin-5-ylmethyl-1H-pyrimidin-4-one]
CCc1c[nH]c(SCc2ccc(Oc3ccc(Cl)c(C(F)(F)F)c3)c(C#N)c2)nc1=O [E83, 2-{[4-chloro-3-(trifluoromethyl)phenyl]oxy}-5-{[(5-ethyl-4-oxo-1,4-dihydro-2-pyrimidinyl)thio]methyl}benzonitrile]
CCc1c[nH]c(OCCc2ccc(Oc3ccc(Cl)c(OC(F)(F)F)c3)cc2)nc1=O [E179]
N#Cc1ccc(Cc2c[nH]c(SCc3ccc(Oc4ccc(Cl)c(C(F)(F)F)c4)cc3)nc2=O)cc1 [E62, 4-[(2-{[(4-{[4-chloro-3-(trifluoromethyl)phenyl]oxy}phenyl)methyl]thio}-4-oxo-1,4-dihydro-5-pyrimidinyl)methyl]benzonitrile]
CCc1c[nH]c(SCc2ccc(Oc3cccc(C(F)(F)F)c3)c(C#N)c2)nc1=O [E98, 5-{[(5-ethyl-4-oxo-1,4-dihydro-2-pyrimidinyl)thio]methyl}-2-{[3-(trifluoromethyl)phenyl]oxy}benzonitrile]
CCc1cn(C)c(OCCc2ccc(Oc3cnc(C(F)(F)F)nc3)cc2)nc1=O [E144, 5-ethyl-1-methyl-2-(4-((2-(trifluoromethyl)pyrimidin-5-yl)oxy)phenethoxy)pyrimidin-4(1H)-one, trifluoroacetic acid salt]
Cc1c[nH]c(NCCc2ccc(Oc3ccc(Cl)c(C(F)(F)F)c3)cc2)nc1=O [E198, 2-{2-[4-(4-Chloro-3-trifluoromethyl-phenoxy)-phenyl]-ethylamino}-5-methyl-1H-pyrimidin-4-one]
CCc1c[nH]c(OCCc2ccc(Oc3ccc(Cl)c(C(F)(F)F)c3)cc2)nc1=O [E27, 2-{[2-(4-{[4-Chloro-3-(trifluoromethyl)phenyl]oxy}phenyl)ethyl]oxy}-5-ethyl-4(1H)-pyrimidinone]
O=c1nc(NCCc2ccc(Oc3ccc(Cl)c(C(F)(F)F)c3)cc2)[nH]cc1CN1CCCC1 [E215, 2-{2-[4-(4-chloro-3-trifluoromethyl-phenoxy)-phenyl]-ethylamino}-5-pyrrolidin-1-ylmethyl-1H-pyrimidin-4-one]
CCc1cn(C)c(OCCc2ccc(Oc3ccc(C(F)(F)F)nc3)cc2)nc1=O [E142, 5-ethyl-1-methyl-2-{[2-(4-{[6-(trifluoromethyl)-3-pyridinyl]oxy}phenyl)ethyl]oxy}-4(1H)-pyrimidinone]
